From PubChem BioAssay AID1645867 (Buhrlage Lab, Dana-Farber Cancer Institute and Novartis …, 2021)
The source made the active and inactive calls. No rule for the calls is given here.

Target: Ubiquitin carboxyl-terminal hydrolase isozyme L1 (Homo sapiens) (UniProt P09936)
Assay: UCH-L1 deubiquitylase inhibitors, biochemical concentration-response, hit retest (AID 1645867)
Details: recombinant UCHL1 deubiquitinase activity assay

Ubiquitin carboxyl-terminal hydrolase isozyme L1 (Homo sapiens), sequence (P09936 whole entry, looked up): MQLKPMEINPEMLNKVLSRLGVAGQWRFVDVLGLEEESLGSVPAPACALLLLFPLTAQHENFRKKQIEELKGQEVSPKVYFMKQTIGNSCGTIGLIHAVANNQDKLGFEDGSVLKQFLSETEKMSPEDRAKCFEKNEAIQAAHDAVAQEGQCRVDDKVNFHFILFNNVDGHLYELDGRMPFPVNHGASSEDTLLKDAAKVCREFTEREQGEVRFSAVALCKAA

IC50	SMILES
> 25 µM (inactive)	O=C(Nc1ccc(F)cc1)N1C[C@@H]2c3nccn3-c3ccccc3[C@@H]2C1
> 25 µM (inactive)	Cc1sc(N)nc1-c1ccc(C(C)(C)C)cc1
> 25 µM (inactive)	O=C(Cn1cccc(-c2nc(-c3ccccc3)no2)c1=O)Nc1ccccc1F
> 25 µM (inactive)	O=C(O)c1c(CNC2CCCCCC2)c2ccccc2n1Cc1ccc(F)cc1
11.6 µM	CC1OC2CC(O)C1(O)C1=C2C(O)=C(C(N)=O)C(=N)C1=O (configuration not stated)
> 25 µM (inactive)	O=C(NCCc1nc2ccccc2n1CCOc1ccccc1Cl)C1CCCCC1
> 25 µM (inactive)	CC(C)CC[C@H]1O[C@@H](CC(=O)O)Cc2cc3c(c(O)c21)C(=O)c1sc(=O)n(C)c1C3=O
> 25 µM (inactive)	COCCNC(=O)c1cc(-c2ccn(C3CCCC3)n2)n2ccccc12
> 25 µM (inactive)	CCOc1ccc(-c2nnc(NC(=O)C3CCN(S(=O)(=O)c4ccc5c(c4)CCC5)CC3)o2)cc1
> 25 µM (inactive)	N#Cc1c(-c2ccc(Cl)cc2)ccn2nc(CCC(=O)O)nc12
23.2 µM	COc1cn(-c2ccc(F)cc2)nc1C(=O)Nc1ccc(Cl)cc1Cl
> 25 µM (inactive)	CC(C)NC(=O)Cn1ccn2nc(-c3ccc(Cl)cc3)cc2c1=O
> 25 µM (inactive)	N=C1/C(=C/c2cn(Cc3ccccc3F)c3ccccc23)C(=O)N=C2SC(C(F)(F)F)=NN12
> 25 µM (inactive)	O=C(Nc1ccc(Cl)c(Cl)c1)c1cccc(N2CCCCS2(=O)=O)c1
> 25 µM (inactive)	O=C(CSc1nnc(C2CC2)n1-c1ccccc1)c1ccc(F)c(F)c1
> 25 µM (inactive)	COc1cc(OC)cc(N2C(=O)N(CC(=O)c3ccc(Br)cc3)c3ccccc3S2(=O)=O)c1
> 25 µM (inactive)	O=C(Nc1c(C(=O)N2CCCCCC2)oc2ccccc12)C1CCCC1
> 25 µM (inactive)	O=C(Nc1nc2c(s1)CN(C(=O)c1cc(-c3ccco3)on1)CC2)C1CCCO1 (configuration not stated)
> 25 µM (inactive)	Cc1ccc(-n2cc(C(=O)NCCCc3ccccc3)nn2)cc1
> 25 µM (inactive)	O=C(COc1ccc(Cl)cc1Cl)Nc1ccc2[nH]c(=O)[nH]c2c1
> 25 µM (inactive)	O=C(Cn1nnc2ccccc21)Nc1nc(-c2ccc3c(c2)CCN3C(=O)c2ccccc2F)cs1
10.7 µM	Oc1cccc2c(-c3ccc(O)c4c(O)cccc34)ccc(O)c12
> 25 µM (inactive)	O=C(NCCc1nc2ccccc2n1Cc1ccccc1F)c1ccco1
4.57 µM	CC1O[C@@H](c2ccc3c(c2O)C(=O)C2=C(C3=O)[C@@]3(O)C(=O)C(O)[C@](C)(O)C[C@@]3(O)C=C2)CC[C@@H]1OC(=O)/C=C/C=C/C=C/[C@@H]1O[C@@](C)(C(=O)O)O[C@H]1C (some centres not stated)
> 25 µM (inactive)	COc1ccccc1-c1nc(-c2cn(-c3ccc(F)cc3)nn2)no1

IC50	SMILES
> 25 µM (inactive)	COc1ccc(-c2noc(-c3nnn(CC(=O)Nc4ccc(OC)cc4OC)c3N)n2)cc1
> 25 µM (inactive)	O=C1C=C(O)c2c(O)cccc2C1=O
> 25 µM (inactive)	Cc1ncc(CO)c2c1Oc1nc(-c3cccc(Cl)c3)nc(SCC(=O)N3CCCCC3)c1C2
> 25 µM (inactive)	CCOc1ccc(-n2ccnc(SCC(=O)Nc3ccccc3F)c2=O)cc1
> 25 µM (inactive)	CCc1cccc(C)c1NC(=O)Cn1nc2ccc(C(=O)NCc3ccccc3)cn2c1=O
> 25 µM (inactive)	COc1ccc(NC(=O)Cn2c(C)cc(=O)n3nc(-c4cccc(C)c4)nc23)cc1
> 25 µM (inactive)	CCC(=O)N1CCCC1c1nc2ccccc2n1Cc1ccc(F)cc1 (configuration not stated)
> 25 µM (inactive)	O=C1CC(c2ccccc2O)Oc2ccccc21 (configuration not stated)
> 25 µM (inactive)	O=C(CN1CC(=O)c2ccccc2S1(=O)=O)Nc1ccccc1
> 25 µM (inactive)	CCOc1ccccc1NC(=O)Cn1c(=O)n(CCCC(=O)NCc2ccc(C)cc2)c(=O)c2sccc21
> 25 µM (inactive)	CCc1ccccc1NC(=O)Cn1c(SCc2ccc(F)cc2)nc2cccnc21
> 25 µM (inactive)	O=C(Nc1ccc(NC(=O)c2ccccc2O)cc1)Nc1ccc(OCc2ccccc2)cc1
> 25 µM (inactive)	CN(c1ccccc1)S(=O)(=O)c1ccc(C(=O)Nc2cccc(C#N)c2)cc1
> 25 µM (inactive)	COc1ccc2nc(N3CCN(C(=O)C4CCCCC4)CC3)sc2c1
23.5 µM	CCc1[nH]c(=O)cc2cc(OC)c(OC)cc12
> 25 µM (inactive)	CC(C)c1cc(C2CCCN2C(=O)Cc2ccc(Cl)cc2)no1 (configuration not stated)
> 25 µM (inactive)	O=C1CC(c2nc3ccccc3n2CCOc2ccccc2)CN1Cc1ccccc1 (configuration not stated)
> 25 µM (inactive)	O=C(NCC(c1cccnc1)N1CCOCC1)C1CCCCC1 (configuration not stated)
> 25 µM (inactive)	COc1ccc2c(C)c(CC(=O)N3CCC[C@H]3C(=O)O)c(=O)oc2c1C
> 25 µM (inactive)	Cc1c(-c2nsc(NC(=O)c3ccc(Cl)cc3)n2)nnn1-c1ccccc1F
> 25 µM (inactive)	COC(=O)Nc1cccn(Cc2c(Cl)cccc2Cl)c1=O
> 25 µM (inactive)	Cc1cc(C)n2nc(Cc3ccccc3)nc2n1
> 25 µM (inactive)	O=C(CCCn1c(=O)c2ccccc2n(CC(=O)NCc2ccccc2Cl)c1=O)NCc1ccc2c(c1)OCO2
> 25 µM (inactive)	COc1ccc(NC(=O)Cn2c(=O)n(CCC(=O)NCc3ccccc3)c(=O)c3sccc32)cc1Cl
> 25 µM (inactive)	CC(NC(=O)c1ccccc1)c1nc2ccccc2n1CC(=O)Nc1ccc2c(c1)OCO2 (configuration not stated)

The remaining lines, values behind:

SMILES	IC50
COc1ccc(OC)c2c(C)cc(N3CC(C)CC(C)C3)nc12 (configuration not stated)	> 25 µM (inactive)
Cc1ccc(NC(=O)c2cc(-c3ccccn3)nc3c(Cl)cccc23)nc1	> 25 µM (inactive)
Cc1ccc(C)c(NC(=O)Cn2cc(C(=O)C3CC3)c3ccccc32)c1	> 25 µM (inactive)
FC(F)(F)c1ccc(Nc2nnnc3ccccc23)cc1	> 25 µM (inactive)
COc1cccc2c1NC(=O)C21CCN(C(=O)Nc2cccc3ccccc23)CC1	> 25 µM (inactive)
CC(C)Cc1ccc(-c2cc(-c3ccc(C(F)(F)F)cc3)c(C#N)c(=O)[nH]2)cc1	> 25 µM (inactive)
Cc1ccc(Cn2nc(C)c(C(=O)N3CCCc4cc(C)ccc43)c2C)cc1	> 25 µM (inactive)
CCCc1ccc(C(=O)[C@@H]2[C@@H](C(=O)c3cccs3)N3c4ccc(C)cc4C(C)=C[C@@H]3[C@@]23C(=O)Nc2ccccc23)cc1	> 25 µM (inactive)
COc1cn(CC(=O)Nc2ccc(Cl)cc2)c(CSc2ccccc2)cc1=O	> 25 µM (inactive)
COc1ccc(C)cc1NC(=O)COc1ncnc2ccccc12	> 25 µM (inactive)
O=C(Nc1cccc(Br)c1)c1cc(-c2cccnc2)n[nH]1	> 25 µM (inactive)
Fc1ccc(Nc2nc(CN3CCOCC3)nc3sc4c(c23)CCC4)cc1Cl	> 25 µM (inactive)
O=c1ccc(-c2cc3ccccc3o2)cn1Cc1ccccc1-c1ccccc1	12.7 µM
O=C1CC2(C(=O)N(Cc3ccc(Cl)cc3)c3ccccc32)c2cn[nH]c2N1 (configuration not stated)	> 25 µM (inactive)
CC(C)=CCOC(C)(C)[C@H]1OC2CC[C@@]3(C)C(CCC4Cc5c([nH]c6ccccc56)[C@@]43C)C23OC3[C@@H]1O (some centres not stated)	> 25 µM (inactive)
CCOc1ccc2c(c1)c(=O)c(C(=O)c1ccccc1)cn2CC(=O)Nc1ccc(Cl)cc1	> 25 µM (inactive)
COc1cc(OC)c(NC(=O)c2cc(-c3ccccn3)n[nH]2)cc1Cl	> 25 µM (inactive)
O=[N+]([O-])c1ccc(S(=O)(=O)CC2CSc3nc4ccccc4n32)cc1 (configuration not stated)	> 25 µM (inactive)
O=C1c2ccccc2C(=O)c2c(O)c(O)cc(O)c21	1.97 µM
Cc1nn(-c2ccccc2)c2c1C1(C(=O)Nc3ccccc31)N1C(=N2)Sc2ccccc21 (configuration not stated)	> 25 µM (inactive)
CCc1ccc(NC(=O)C2CCN(c3nc4nc[nH]c(=O)c4s3)CC2)cc1	> 25 µM (inactive)

SMILES	IC50
COc1cc(Cl)c(NC(=O)c2cc(-c3ccccn3)n[nH]2)c(OC)c1	> 25 µM (inactive)
CC(C)CC1NC(=O)C2CCCN2C1=O (configuration not stated)	23.9 µM
O=C(Nc1cccc(-c2nc3cnccc3o2)c1)c1ccc(Br)o1	> 25 µM (inactive)
Cc1cccc(-c2nc(NC(=O)COc3ccc(F)cc3)no2)c1	> 25 µM (inactive)
O=C(CCc1nc2sc3c(c2c(=O)[nH]1)CCCCC3)Nc1ccc(F)cc1F	> 25 µM (inactive)
CCOc1ccc(CC(=O)Nc2ccc(-c3cn4cccnc4n3)cc2)cc1	> 25 µM (inactive)
COc1cccc(NC(=O)Cn2c3ccccc3n3c(=O)cc(-c4ccccc4)nc23)c1	> 25 µM (inactive)
Cc1ccc(NC(=O)C2C3C=CC4(O3)C2C(=O)N(C2CCCCC2)C4C(=O)NC2CCCCC2)cc1C (configuration not stated)	> 25 µM (inactive)
O=C(Nc1c(C(=O)N2CCCCCC2)oc2ccccc12)C1CCCCC1	> 25 µM (inactive)
Cc1ccc2c(c1)c(=O)c(C(=O)c1ccccc1)cn2CC(=O)Nc1ccc2c(c1)OCO2	> 25 µM (inactive)
NC(=O)C1(N2CCCCC2)CCN(CC(=O)Nc2cc(Cl)ccc2Cl)CC1	> 25 µM (inactive)
Cc1cc(OCC(=O)Nc2ccc3c(c2)NC(=O)CO3)ccc1Cl	> 25 µM (inactive)
O=C(Cn1c(COc2ccccc2)nc2ccccc21)Nc1cc(Cl)cc(Cl)c1	> 25 µM (inactive)
Cc1nc(S(=O)(=O)NC[C@@]23CCC[C@H]2N(C)C(=O)CC3)cn1C	> 25 µM (inactive)
O=C(COc1ccc(N2CC(C(=O)NCc3ccccc3)CC2=O)cc1)Nc1ccccc1Cl (configuration not stated)	> 25 µM (inactive)
CCOc1cccc(-c2noc(-c3nn(-c4ccccc4)ccc3=O)n2)c1	> 25 µM (inactive)
CSc1ccc([C@H]2[C@@H](C(=O)O)c3ccccc3C(=O)N2Cc2ccc(F)cc2)cc1	> 25 µM (inactive)
Cc1cc2nc(N3CCN(C(=O)c4ccccc4)CC3)c3ccccc3n2n1	> 25 µM (inactive)
COc1ccc(C(=O)Nc2nnc(S(=O)(=O)N3CCCc4ccccc43)s2)cc1OC	> 25 µM (inactive)
CCn1cc2c(n1)c(=O)n(Cc1ccccc1)c(=O)n2CC(=O)Nc1ccc(C)cc1C	> 25 µM (inactive)
O=C1[C@H]2Cc3c([nH]c4ccccc34)CN2C(=O)CN1Cc1ccc(F)cc1	> 25 µM (inactive)
